Assay results: BindingDB's records for doi:10.1021/acs.jmedchem.9b01508 (Virginia Tech, 2020)

Assay: Inhibition of human SphK2 expressed in Saccharomyces cerevisiae KYA1 assessed as yeast growth measured after 24 hrs

EC50 [nM]	SMILES
84	C=CCc1cc(-c2noc([C@@H]3CCCN3C(=N)N)n2)ccc1OCc1ccc(C(F)(F)F)cc1
59	N=C(N)N1CCC[C@H]1c1nc(-c2ccc(OCc3ccc(C(F)(F)F)cc3)c(C(F)(F)F)c2)no1
37	CCCc1cc(-c2noc([C@@H]3CCCN3C(=N)N)n2)ccc1OCc1ccc(C(F)(F)F)cc1
50	N=C(N)N1CCC[C@H]1c1nc(-c2ccc(OCc3ccc(C(F)(F)F)cc3)c(C3CC3)c2)no1
73	CC(C)(C)c1cc(-c2noc([C@@H]3CCCN3C(=N)N)n2)ccc1OCc1ccc(C(F)(F)F)cc1
146	CCc1cc(-c2noc([C@@H]3CCCN3C(=N)N)n2)ccc1OCc1ccc(C(F)(F)F)cc1
32	CC(C)c1cc(-c2noc([C@@H]3CCCN3C(=N)N)n2)ccc1OCc1ccc(C(F)(F)F)cc1
